Test: Human HepG2 cell viability assay in 384 well format
Type: toxicity, cell-based
Parameters: dose 125 nL, time 70.5 hour; concentration not given beside the values
Conditions: HepG2 cells, read-out: Inhibition

Row | SMILES | cytotoxicity at 70.5 h [%]
1 | COc1ccc(CC(C)Nc2cccc(F)c2)cc1 (stereo not given) | -1.11
2 | Cc1csc(CN(C)C(=O)C2CCC(=O)N(CCN(C)C)C2)n1 (stereo not given) | -3.99
3 | CC(=O)NCC(=O)N1CCC2(CC1)CN(c1cccnc1)C(=O)CO2 | -13.6
4 | CC(=O)N1C[C@H](NC(=O)c2cscn2)[C@@H]2OCCC[C@@H]21 | -16.1
5 | COc1nn(C)c2c1CCCN(C(=O)c1cc[nH]n1)C2 | -13
6 | CCN1CCC2(COCc3cnc(-c4cccnc4)nc32)C1 (stereo not given) | -13.9
7 | CS(=O)(=O)NC[C@]12COC[C@H]1CN(C(=O)C1CCCCC1)C2 | -8.19
8 | CCN1CCCn2c(nc(CNC(=O)c3ccsc3)cc2=O)C1 | -15.8
9 | Cn1cccc1C(=O)N1CC[C@H]2C[C@@H](c3ccncn3)O[C@@H]2C1 | -9.87
10 | CC1=N[C@@]2(CC[C@@H]3CN(S(=O)(=O)N(C)C)C[C@@H]32)C(=O)N1CC(C)C | -7.17
11 | Cc1nc(COC[C@@H]2CC[C@H]3[C@H](CCN3S(C)(=O)=O)O2)cs1 | -11.7
12 | COCC(=O)N1CC[C@@H]2O[C@@H](COCc3csc(C)n3)CC[C@@H]21 | 4.53
13 | CC1=N[C@@]2(CC[C@@H]3CN(S(=O)(=O)CC(C)C)C[C@@H]32)C(=O)N1CC(C)C | -5.23
14 | Cc1ccc(CN2CCCC23CCN(S(=O)(=O)c2ccccc2)C3)o1 (stereo not given) | -7.71
15 | CS(=O)(=O)N[C@@H]1CCO[C@]2(CCN(C(=O)c3cnccn3)C2)C1 | -5.97
16 | CS(=O)(=O)NCc1nnc2n1CCN(CC1CC1)C2 | -6.05
17 | CN1CC(=O)N(c2cccc(F)c2)CC12CCNC2 (stereo not given) | 1.26
18 | Cc1nc(C)c2c(n1)CCN(C(=O)CC1CC1)CC2 | -6.2
19 | CC(=O)NCC(=O)N1Cc2nccn2CC(Cn2cccn2)C1 (stereo not given) | -4.71
20 | Cc1noc([C@H]2C[C@@H]3CCN(C(=O)N(C)C)C[C@H]3O2)n1 | -4.62
21 | CN1C(=O)C2(CCN(CCO)C2)c2ccccc21 (stereo not given) | -5.56
22 | Cc1cc(CN2C[C@@H]3COC[C@]3(CNC(=O)c3ccno3)C2)no1 | -4.13
23 | Cn1ccc(C(=O)NC2CCC23CCN(C(=O)N2CCCC2)CC3)c1 (stereo not given) | -1.08
24 | CCS(=O)(=O)N1CCC2(CCC2NC(=O)c2ccn(C)c2)CC1 (stereo not given) | -7.91
25 | O=C(NCC1CC1)[C@H]1C[C@H]2OCC[C@H]2N(Cc2ccoc2)C1 | 22.9
26 | O=C(NCC1CC1)[C@H]1C[C@@H]2CN(S(=O)(=O)Cc3ccccc3)C[C@H]1O2 | 18.9
27 | O=C(c1cscn1)N1CCN2C[C@H](OCc3cccnc3)C[C@H]2C1 | 20

Row | SMILES | cytotoxicity at 70.5 h [%]
28 | CN(C)CCN1CC(C(=O)NCc2ccc(C#N)cc2)CC1=O (stereo not given) | -1.01
29 | CCN(C)Cc1nc(-c2ccccc2NS(C)(=O)=O)oc1C | -10.5
30 | Cc1ccccc1-n1cc(CNC(=O)CC2C(=O)NCCN2C)cn1 (stereo not given) | -1.91
31 | O=C(c1cn(Cc2ccc(Cl)cc2)nn1)N1CCCO1 | -10.9
32 | c1ccc(-c2nc3c(c(NCc4n[nH]c5c4CCC5)n2)CCNC3)cc1 | 12.6
33 | Cc1cc(NCCc2c[nH]cn2)nc(-c2cccnc2)n1 | -6.06
34 | CC(=O)c1ccc(C(=O)NCc2cccnc2N2CCCC(O)C2)s1 (stereo not given) | -14.1
35 | CC1(CCC(=O)N2CCC(n3cc(C4(O)CCCC4)nn3)CC2)CC1 | 22.5
36 | C[C@@H]1CN(C(=O)CCc2nncn2C)C[C@@]1(O)C1CCC1 | -2.96
37 | Cc1ccc(OC[C@@H]2CNC[C@H](C(=O)NCC3CCCO3)C2)cn1 (stereo not given in full) | -1.9
38 | O=C(Cc1ccc2c(c1)OCO2)N[C@@H]1CCNC[C@H]1O | -3.71
39 | COc1ccc(-c2noc(Cn3cnc(C)c3)n2)c(OC)c1OC | -0.844
40 | CC(C)=CCC1(C(=O)O)CCCN(c2ccnc(N)n2)C1 (stereo not given) | 17
41 | NCc1cc(NCC(c2ccccn2)N2CCOCC2)ncn1 (stereo not given) | -6.83
42 | CCn1cc(CN2CCC(C3CCN(C)CC3)CC2)cc1C#N | -1.33
43 | OCC1CCCCN1Cc1nc(Cc2cccc(F)c2)no1 (stereo not given) | -12.1
44 | CCn1cc(CN2C[C@H]3CC[C@@H]2CN(C(=O)c2cnccn2)C3)cn1 | -5.14
45 | Clc1ccc(-n2cnnc2CCCN2CCOCC2)cc1 | 1.11
46 | CCn1c(C2CCCN(Cc3cc(F)ccc3OC)C2)nn(C)c1=O (stereo not given) | -9.41
47 | O=C1CC2(CCN(c3nccc(-c4cc(C(=O)O)ccn4)n3)CC2)CN1 | -8.17
48 | CC(C)=CCN1CCN(S(=O)(=O)c2cn(C)cn2)[C@H]2CS(=O)(=O)C[C@H]21 | 48.8
49 | Cc1nc(NCc2noc(C3CCCO3)n2)c2sccc2n1 (stereo not given) | 31.3
50 | Nc1ncccc1CN1CCOCC1CC(=O)NCc1ccccn1 (stereo not given) | 19.3
51 | CC(C)N(C(=O)N1CCn2cncc2C1)C(C)C | 1.59
52 | O=C(O)c1cccc(C2CCCN(S(=O)(=O)C3CC3)C2)c1 (stereo not given) | -10.8
53 | CCOc1ccccc1-n1c(CNC)n[nH]c1=O | -2.54
54 | Cn1c(CCNC(=O)C2CCCN(C3CCOCC3)C2)n[nH]c1=O (stereo not given) | -1.23

Row | SMILES | cytotoxicity at 70.5 h [%]
55 | Cc1ccccc1CN1CCC(CNC(=O)Cn2cncn2)CC1 | 13.8
56 | O=C(CCCc1cn[nH]c1)N1C[C@H](CO)C[C@H](CN2CCCC2)C1 | -5.76
57 | CCC(=O)Nc1cccc(C(=O)NCCC2=CSC3=NCCCN23)c1 | -7.59
58 | Cc1nnc(CN(CCc2ccccc2)C2CCN(C)CC2)s1 | -13.6
59 | O=C1O[C@@H]2CN(Cc3ccccc3F)C[C@@H]2N1CCCN1CCOCC1 | 8.16
60 | CCN1CCN(C[C@@H]2CN(c3ncccc3C(F)(F)F)C[C@@H]2CO)CC1 | -5.49
61 | Cc1ccc(SCCCNC(=O)c2cn([C@H]3CC[C@@H](N)CC3)nn2)cc1 | 20.6
62 | CCc1nnc(NC(=O)c2ccc(C3CCCN3CC(C)C)s2)s1 (stereo not given) | -2.96
63 | Cc1nc[nH]c1CN1C[C@@H]2CC[C@H](C1)N(C(=O)CCc1cccnc1)C2 | -11.7
64 | c1ccc2c(c1)CN(c1ncnc3c1CCNC3)CCO2 | -5.38
65 | CCc1ccc(CN2CCN(CCOC)[C@@H]3CS(=O)(=O)C[C@@H]32)cc1 | 1.39
66 | O=c1c2sccc2ncn1Cc1cc(C2CC2)[nH]n1 | -8.84
67 | N#Cc1cccnc1N1CCCC(CO)(Cc2ccc(F)cc2)C1 (stereo not given) | -5.86
68 | COc1ccnc(CN2CCCC(CCc3ccc(F)cc3)C2)c1OC (stereo not given) | 2.04
69 | COc1cccc(F)c1-c1nc2c([nH]1)c(C1CC1)nn2C | 10.5
70 | CN(C)C[C@@H]1CN(C2CCN(c3ccccc3Cl)CC2)C[C@@H]1CO | -14.4
71 | CSCC(=O)N1CCC(Oc2cccc(C)c2)CC1 | -7.4
72 | COc1ccccc1-c1ncc(CN2CCCC[C@H](N(C)C)C2)s1 | 4.63
73 | O=S(=O)(NCCn1cc(C2CCCNC2)nn1)c1ccc(Cl)cc1 (stereo not given) | -9.08
74 | C=C(C)COc1ccccc1C(=O)N1CCC2(CC1)CN(C)CCN2C | -11.5
75 | O=C(O)CCc1cc2n(n1)CCCN(C(=O)c1ccc(Cl)s1)C2 | -22.4
76 | CCCn1ncc(C(=O)N2CCN(C3CCSCC3)CC2)c1C | 2.68
77 | COC(=O)CNCC1(O)CCCN(Cc2cccc(F)c2F)C1=O (stereo not given) | -0.438
78 | CC(C)n1cc(C(=O)N2CCC(n3cc(C(C)(C)C)nn3)CC2)cn1 | -12.1
79 | COc1c(C)cc(C(C(=O)O)N(C)Cc2ccn[nH]2)cc1C (stereo not given) | -3.26
80 | Cc1nc(CN(C)C(=O)c2cc(C)sc2NC(=O)C(C)(C)C)no1 | -11.2
81 | O=C(NCCc1cccs1)[C@H]1CO[C@H]2CCNC[C@H]2C1 | -15

Row | SMILES | cytotoxicity at 70.5 h [%]
82 | COCCN1CC[C@@H]2OC[C@H](C(=O)NCc3cccs3)C[C@@H]2C1 | 10.1
83 | CCC1=N[C@@]2(CC[C@@H]3CN(CC4CC4)C[C@@H]32)C(=O)N1C | -14.1
84 | CS(=O)(=O)CC(=O)N1C[C@H]2CCC[C@@]2(COCc2ccccn2)C1 | -19.8
85 | Cc1nnc(N2CC[C@H]3C[C@@H](C(=O)NC4CCCC4)O[C@H]3C2)s1 | 27
86 | O=C(NCC1CC1)[C@H]1C[C@H]2OCC[C@H]2N(CCc2ccccc2)C1 | -1.31
87 | CC(C)NC(=O)N1CCc2ncc(CN3CCOCC3)n2CC1 | -1.87
88 | Cn1ccc(C(=O)N2CCC[C@]3(C[C@@H](OCc4ccccn4)CO3)C2)n1 | -12.2
89 | Cc1cnnn1Cc1ncn2c1CN(Cc1cccs1)CCC2 | 4.51
90 | c1ccc(CN2CCc3ncnc(-c4ccsc4)c3CC2)nc1 | -12.4
91 | O=C1CC(c2cccnc2)C2(CCN(S(=O)(=O)C3CC3)CC2)N1 (stereo not given) | -3.38
92 | Cc1nc(CN2CCc3ncnc(C)c3CC2)cs1 | -6.23
93 | Cn1cc(-c2cnc(N3CCOCC3)nc2)cc1C(=O)NCCO | -6.33
94 | CC(C)N(C)Cc1cnc2n1CCN(C(=O)NC1CCCC1)C2 | -9.47
95 | COCCN1C(=O)C[C@H]2[C@H]1CCN2Cc1cccc(C#N)c1 | -19.1
96 | O=C(CC1CC1)NCc1cn2c(n1)CN(CC1CC1)CC2 | -19.5
97 | O=C1[C@@H]2CCN(Cc3ccoc3)C[C@@H]2OCCN1c1ccccc1 | -10.9
98 | CCN1C[C@@H]2[C@@H](OC)CCN(S(=O)(=O)c3ccccc3F)[C@@H]2C1 | -9.34
99 | O=C(NCc1ccccn1)[C@H]1COC[C@H]2CN(Cc3ccoc3)C[C@H]21 | -2.29
100 | O=C([C@H]1C[C@H]2OCC[C@H]2N(Cc2cccnc2)C1)N1CCCO1 | 0.465
101 | Cc1ncccc1NC(=O)[C@H]1C[C@@H]2CCN(Cc3nccs3)C[C@@H]2O1 | -2.41
102 | COc1ccc(CN2C[C@@H]3OCCN(c4ncccn4)[C@@H]3C2)cc1 | -7.28
103 | Cc1cccc(CN2C(=O)CC[C@@H]3[C@H]2CCN3Cc2ccc(C)s2)n1 | -18.1
104 | c1cc(CNCC2OCCc3cn(CC4CCOCC4)nc32)ccn1 (stereo not given) | 9.22
105 | Cn1nc(COc2cccnc2)c2c1CCN(c1cnccn1)C2 | -14.9
